Results published in paper PMC12040275, “Fusaric acid-mediated S-glutathionylation of MaAKT1 channel confers the virulence of Foc TR4 to banana” (PLOS Pathogens, 2025).

Key:
[1] = molecular target: T1, MaAKT1 (Musa acuminata, UniProt A0A804HWY8); assay: whole-cell patch clamp, HEK-293; format: cell-based; conditions: HEK293
T1 construct: synthesized cDNA in pcDNA 6/His A, expressed in HEK-293 cells; patch-clamp

[2] = molecular target: T1, MaAKT1; assay: patch clamp, giant inside-out patches from HEK-293; format: biochemical; conditions: covalent (cysteine thiol oxidation); applied to cytosolic side; -194 mV

T1 sequence (A0A804HWY8 1-891): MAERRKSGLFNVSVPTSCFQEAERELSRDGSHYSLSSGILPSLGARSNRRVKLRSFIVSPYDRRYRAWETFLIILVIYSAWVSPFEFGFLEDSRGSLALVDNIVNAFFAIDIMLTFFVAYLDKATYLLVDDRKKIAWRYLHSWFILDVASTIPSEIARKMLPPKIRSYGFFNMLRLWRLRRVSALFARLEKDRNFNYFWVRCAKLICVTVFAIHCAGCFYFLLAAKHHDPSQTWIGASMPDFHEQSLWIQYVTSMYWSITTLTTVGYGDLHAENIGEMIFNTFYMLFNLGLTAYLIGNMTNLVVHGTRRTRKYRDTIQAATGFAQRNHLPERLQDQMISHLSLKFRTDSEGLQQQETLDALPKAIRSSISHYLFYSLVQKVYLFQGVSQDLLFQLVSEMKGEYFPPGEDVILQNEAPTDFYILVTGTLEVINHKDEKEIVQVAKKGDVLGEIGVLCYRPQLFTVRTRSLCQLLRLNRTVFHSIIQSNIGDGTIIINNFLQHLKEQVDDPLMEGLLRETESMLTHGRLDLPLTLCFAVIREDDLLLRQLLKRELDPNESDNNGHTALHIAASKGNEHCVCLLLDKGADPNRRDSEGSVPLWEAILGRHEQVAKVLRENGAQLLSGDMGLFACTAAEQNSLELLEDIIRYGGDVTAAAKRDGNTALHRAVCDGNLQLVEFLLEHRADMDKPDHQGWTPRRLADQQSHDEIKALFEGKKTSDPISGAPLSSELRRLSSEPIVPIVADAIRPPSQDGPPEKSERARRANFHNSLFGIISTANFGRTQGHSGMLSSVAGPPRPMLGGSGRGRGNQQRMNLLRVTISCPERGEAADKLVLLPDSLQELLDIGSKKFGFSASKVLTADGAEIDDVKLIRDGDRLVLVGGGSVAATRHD

c1ccc(SSc2ccccn2)nc1 [2-DTP, 2,2-Dithiodipyridine]
inhibition at 50 µM [1]: 61.5 ± 6.66%

O=C(O)c1cc(SSc2ccc([N+](=O)[O-])c(C(=O)O)c2)ccc1[N+](=O)[O-] [DTNB, 5,5-dithiobis-2-nitrobenzoic acid]
patch clamp, giant inside-out patches from HEK-293 [2]: low concentration of DTNB significantly inhibited MaAKT1

O=[N+]([O-])c1ccc(SSc2ccc([N+](=O)[O-])cn2)nc1 [DTNP, 2,2’-dithiobis-5-nitropyridine]
inhibition at 50 µM [1]: 60 ± 9.89%
